Literature values, collected in US6743448B2 (priority 2000, dated 2004).

What was measured:
IGF-I mRNA = conditions: relative to hypophysectomized control animals
[1] = system: formation of DHT and androstenedione; conditions: 14C-testosterone as substrate, effective inhibitory concentrations, n 4, p<0.001
prostatic cells = conditions: 1 nM for 2-7 days

## C[C@]12CCC(=O)C[C@@H]1CC[C@@H]1[C@@H]2CC[C@]2(C)[C@@H](O)CC[C@@H]12 [DHT, dihydrotestosterone]
IGF-I mRNA
  Increase of the IGF-I mRNA level: 40 times

## CC(=O)[C@H]1CC[C@H]2[C@@H]3CCC4=CC(=O)CC[C@]4(C)[C@H]3CC[C@]12C [Progesterone, progesterone]
[1]
  Inhibition of the formation of DHT: 10 fold
  Inhibition of the formation of androstenedione: 3-5 fold

## COc1ccc2[nH]cc(CCNC(C)=O)c2c1 [Melatonin, melatonin]
Prostatic cells
  Effect on cell growth: inhibit cell growth

## C[C@]12CC[C@H]3[C@@H](CCC4=CC(=O)CC[C@@]43C)[C@@H]1CC[C@@H]2O [Testosterone, (17)-17-Hydroxyandrost-4-en-3-one]
IGF-I mRNA
  Increase of the IGF-I mRNA level: 30 times
